Molecules are shown by their SMILES. Like-named read-outs stand apart in the source and are kept apart here.

Data set [1] deals with PC3 Prostrate cancer cells. Description: Antiproliferative activity / cell viability (MTS, 72 h). The format is cell-based, human. Particulars: Homo sapiens.
Description: (§1) The relative number of the live cells was determined using the CellTiter® 96 AQueous One Solution Cell Proliferation Assay (Promega). Determinations were made in duplicates or triplicates.
A short description of data set [2]: Aggregation tendency by dynamic light scattering (DLS). The conditions noted are these: for DLS count rate (kcps): 1% DMSO, potassium phosphate buffer 5 mM pH 7.4. The format is physicochemical. The procedure: Stock solutions (10 mM) of test compounds prepared in DMSO, diluted to 1 mM with DMSO and then serially diluted with potassium phosphate buffer (5 mM, pH 7.4, prefiltered before use) to give final concentrations of 1 μM and 10 μM. Final concentration of DMSO was 1% v/v. Measurements were carried out on the Malvern Instrument Zetasizer Nano ZS system equipped with a 4 mW He—Ne laser at 633 nm and detector angle of 90°. Three or more determinations of derived count rates (kilocounts per second, kcps) were obtained from each concentration of test compound, using two separately prepared stock solutions. Data collection was carried out using the software supplied with the instrument. Results are represented as mean±standard deviation. The positive control was benzyl benzoate (250 μM) which gave a count rate of 1180 kcps (±35). The vehicle (phosphate buffer, 1% DMSO) gave a reading of 14.9±0.4.

Data set [3] can be described thus: In vitro stability in rat liver microsomes. Type of data set: in vitro ADME. Particulars: for Half-life (min) / Intrinsic Clearance (μL/min/mg): NADPH; for half-life / microsomal CLint: male, pooled rat liver microsomes, pH 7.4, NADPH; for microsomal CLint: read-out: Intrinsic Clearance. The procedure:
The mixture was preincubated for 5 min at 37° C. in a shaking water bath, after which the reaction was initiated by adding […] of 10 mM NADPH (freshly prepared in phosphate buffer) to give a final concentration of 1 mM NADPH in the mixture. Aliquots of 50 μL were withdrawn immediately on addition of NADPH (time 0) and subsequently at 5, 15, 30 and 45 min. […] The mixture was then centrifuged at 10,000×g to remove the protein and the content of the test compound in the supernatant was subsequently measured by LCMS.
For each test compound, the metabolic stability of a positive control, midazolam (5 μM) which is a known cytochrome P450 substrate, was concurrently determined to evaluate the adequacy of the experimental conditions. The stability of the test compound to microsomal degradation in the absence of NADPH was also monitored.
Separations were made on a C18 column (Luna 3u C18(2) 100A column (2.0×50 mm, i.d., 3 μM, Phenomenex, Aschaffenburg, Germany or Eclipse Plus C18 column, 4.6×150 mm, i.d., 3.5 μM Agilent Technologies, Palo Alto, Calif., USA) with a security guard cartridge (3.0×4 mm, Agilent Technologies, Palo Alto, Calif., USA). Mobile phase was 0.1% formic acid in acetonitrile-water as mobile phase. Flow rate was set at 0.2 or 0.6 mL/min and the column temperature was at 30° or 40° C. 2 or 5 μL full loop sample injection was used.
Data processing was performed with Analyst™ 1.4.2 software package (Applied Biosystems, MA., USA). The corresponding MRM transition of this candidate was selected and used for peak configuration in Analyst 1.4.2 for semi-quantitation. The peak areas of test compound at different time points were expressed as a % of the peak area of test compound at time=0 min. The resulting % of intact (or remaining) test compound (average of 3 measurements with SD) was plotted against incubation time drug (Figure xx). In vitro half life (T1/2, min) was calculated from Equation 3 (Lu C, Li P, Gallegos R, Uttamsingh V, Xia C Q, Miwa G T, et al. Comparison of intrinsic clearance in liver microsomes and hepatocytes from rats and humans: evaluation of free fraction and uptake in hepatocytes. Drug Metab Dispos 2006; 34: 1600-5). T1/2=0.693/k(min) Equation 3: Where k is the slope of the plot Estimated in vitro clearance was determined from Equation 4: CLint, in vitro=V×0.693/T½ Equation 4: where V (μL/mg)=Volume of incubation/amount of microsomal protein in the incubation (μL/mg) Ames Test for Mutagenicity

In data set [4] the test system is MDA-MB-231 human breast cells. The data set is described as follows: Antiproliferative activity / cell viability (MTS, 72 h). Particulars: Homo sapiens.
Description: as §1
Human breast cancer MDA-MB231, liver cancer HepG2 and lung fibroblast cells were purchased from ATCC (Rockville, Md.). MDA-MB231 cells and IMR-90 cells were grown in DMEM (Sigma Aldrich, Singapore) and EMEM (Sigma Aldrich, Singapore) respectively at 37° C., 5% CO2. DMEM was supplemented with 10% fetal bovine serum (Invitrogen, heat treated at 65 deg C., 30 min), 50 units/L penicillin-G and 50 μg/mL streptomycin. EMEM was supplemented with 10% fetal bovine serum (heat treated as above), 100 mg/L penicillin-G and 100 μg/mL streptomycin.
Cell viability was assessed using CellTitre 96® Aqueous One Solution (Promega, Madison, Wis.) containing the tetrazolium salt 3-(4,5-dimethylthiazol-2-yl)-5-(3-carboxymethoxyphenyl)-2-(4-sulfophenyl)-2H-tetrazolium (MTS). […] Final concentration of DMSO per well was maintained at 0.5% v/v. […] Cell viability was determined from the expression:
The plot was constrained to ≧0 and ≦100%. At least 3 independent determinations of IC50 were made using two different stock solutions of test compound.
Where [5] appears, read: PC-3M, Table 3, 72 h, mean (SD), read-out: IC50 PC3.
Where [6] appears, read: Table 6, from earlier table, read-out: IC50 (μM) PC3.
Setting [7] is: MDA-MB-231, 72 h, read-out: IC50 MDA-MB-231 (μM).
[8] abbreviates: MDA-MB-231, 72 h, read-out: IC50MDA-MB-231 (μM).
The mark [9] stands for this setting: MDA-MB-231, read-out: IC50 (μM) MDA MB 231.

In the case of `CCCCCCCCn1cc(CC(N)=O)c2cc(-c3cccc(C)c3)ccc21` [Cysmethynil, 2-[5-(3-methylphenyl)-1-octyl-1H-indolo-3-yl]acetamide, reference compound], the IC50 amounted to 24.8 µM in data set [1] (setting [5]); 25.2 µM in data set [1] (setting [6]); 27.4 µM in data set [4] (setting [7]); 26.8 µM in data set [4] (setting [8]); 27.4 µM in data set [4] (setting [9]). Also, the entries for the “DLS count rate (kcps)” value in data set [2] (1 μM) and in data set [2] (10 μM) were 22.6 kcps and 164.0 kcps, respectively. For the same molecule, in data set [3], the “Half-life (min)” value is 44.8 (8.0) min. The “Intrinsic Clearance (μL/min/mg)” value in data set [3] is 53.6 (9.0) μL/min/mg. This molecule also registered a half-life in data set [3] of 44.8 min. For the same molecule, the microsomal CLint in data set [3] came to 53.6 µL/min/mg.

`CCCCCCCCn1cc(CN(CC)CC)c2cc(-c3cnc(N)nc3)ccc21` [Compound 8-12, 5-(3-Diethylaminomethyl-1-octyl-1H-indol-5-yl)-pyrimidin-2-ylamine]: the IC50 worked out at 2.55 µM in data set [1] (setting [5]); 2.55 µM in data set [1] (setting [6]); 2.48 µM in data set [4] (setting [7]); 2.63 µM in data set [4] (setting [8]); 2.63 µM in data set [4] (setting [9]). In addition, the entries for the “DLS count rate (kcps)” value in data set [2] (1 μM) and in data set [2] (10 μM) were 24.5 kcps and 53.3 kcps, respectively. The “fold increase in light scattering” value in data set [2] (concentration increased from 1 μM to 10 μM) came out at 2. Besides, in data set [3], the “Half-life (min)” value was 11.3 (0.4) min. Also, the “Intrinsic Clearance (μL/min/mg)” value in data set [3] is 204.0 (9.0) μL/min/mg. The half-life in data set [3] was determined as 11.3 min. Also, the microsomal CLint in data set [3] came to 204 µL/min/mg.

Take `CCCCCCCCn1c2c(c3cc(-c4cnc(N)nc4)ccc31)CN(C)CC2` [Compound 305, 8-(2′-amino-pyrimidin-5′-yl)-2-methyl-5-n-octyl-1,2,3,4-tetrahydropyrido[4,3-b]indole]: the figures for the IC50 in data set [1] (setting [5]), in data set [4] (setting [7]) and in data set [4] (setting [8]) were 4.31 µM, 5.65 µM and 4.61 µM, respectively. The “DLS count rate (kcps)” value in data set [2] (1 μM) amounted to 21.0 kcps; in data set [2] (10 μM), 29.0 kcps. In data set [3], this molecule yielded a half-life of 31.6 min. Also, the microsomal CLint in data set [3] came to 76.6 µL/min/mg.

(Values after patent US9422238B2, “ICMT inhibitors” (National University of Singapore, priority 2012, dated 2016).)
